{"source": "ChEMBL document CHEMBL4418912", "about": "“Methods of identifying antagonists of the hTAS2R46 bitter taste receptor” (2014)", "format_in_all_cases": "functional, cell-based", "key": {"[1]": {"molecular_target": "T1, Taste receptor type 2 member 5 (Homo sapiens) (UniProt Q9NYW4)", "T1 sequence (whole entry)": "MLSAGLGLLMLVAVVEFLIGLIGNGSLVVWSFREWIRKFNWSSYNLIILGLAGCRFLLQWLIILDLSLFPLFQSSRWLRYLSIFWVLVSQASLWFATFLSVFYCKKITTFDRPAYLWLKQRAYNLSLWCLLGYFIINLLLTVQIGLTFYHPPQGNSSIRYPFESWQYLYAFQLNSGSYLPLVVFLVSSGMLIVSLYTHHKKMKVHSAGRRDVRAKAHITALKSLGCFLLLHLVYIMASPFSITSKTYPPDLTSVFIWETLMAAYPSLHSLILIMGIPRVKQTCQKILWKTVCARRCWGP", "assay": "Antagonist activity at recombinant human N-terminal rat ST3 receptor-fused TAS2R5 expressed in HEK293T cells co-expressing Galpha16gust44 assessed as inhibition of denatonium saccharide-induced intracellular calcium level at 100 uM by FLIPR assay"}, "[2]": {"molecular_target": "T2, Taste receptor type 2 member 13 (Homo sapiens) (UniProt Q9NYV9)", "T2 sequence (whole entry)": "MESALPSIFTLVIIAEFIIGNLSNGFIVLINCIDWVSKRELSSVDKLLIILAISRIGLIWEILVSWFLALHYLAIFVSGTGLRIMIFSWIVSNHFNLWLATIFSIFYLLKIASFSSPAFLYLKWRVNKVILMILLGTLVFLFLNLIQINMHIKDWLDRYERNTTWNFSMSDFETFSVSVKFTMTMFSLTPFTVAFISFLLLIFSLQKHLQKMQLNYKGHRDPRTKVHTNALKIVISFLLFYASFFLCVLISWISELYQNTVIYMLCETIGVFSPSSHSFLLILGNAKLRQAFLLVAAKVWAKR", "assay": "Agonist activity at recombinant human N-terminal rat ST3 receptor-fused TAS2R13 expressed in HEK293T cells co-expressing Galpha16gust44 assessed as increase in intracellular calcium level at 100 uM by FLIPR assay"}, "[3]": {"molecular_target": "T1, Taste receptor type 2 member 5 (Homo sapiens)", "assay": "Agonist activity at recombinant human N-terminal rat ST3 receptor-fused TAS2R5 expressed in HEK293T cells co-expressing Galpha16gust44 assessed as increase in intracellular calcium level at 100 uM by FLIPR assay"}, "[4]": {"molecular_target": "Taste receptor type 2 member 45 (Homo sapiens) (UniProt P59539)", "sequence (P59539 whole entry, the tested form may be a part)": "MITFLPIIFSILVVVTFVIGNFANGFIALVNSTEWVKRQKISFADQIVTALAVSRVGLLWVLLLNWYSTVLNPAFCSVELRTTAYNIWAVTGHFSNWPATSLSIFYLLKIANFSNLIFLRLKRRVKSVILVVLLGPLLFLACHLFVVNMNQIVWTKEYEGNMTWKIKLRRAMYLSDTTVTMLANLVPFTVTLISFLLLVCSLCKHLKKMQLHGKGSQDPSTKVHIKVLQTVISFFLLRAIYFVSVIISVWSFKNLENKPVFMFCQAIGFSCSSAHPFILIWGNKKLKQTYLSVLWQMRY", "assay": "Agonist activity at recombinant human N-terminal rat ST3 receptor-fused TAS2R45 expressed in HEK293T cells co-expressing Galpha16gust44 assessed as increase in intracellular calcium level at 100 uM by FLIPR assay"}, "[5]": {"molecular_target": "T3, Taste receptor type 2 member 9 (Homo sapiens) (UniProt Q9NYW1)", "T3 sequence (whole entry)": "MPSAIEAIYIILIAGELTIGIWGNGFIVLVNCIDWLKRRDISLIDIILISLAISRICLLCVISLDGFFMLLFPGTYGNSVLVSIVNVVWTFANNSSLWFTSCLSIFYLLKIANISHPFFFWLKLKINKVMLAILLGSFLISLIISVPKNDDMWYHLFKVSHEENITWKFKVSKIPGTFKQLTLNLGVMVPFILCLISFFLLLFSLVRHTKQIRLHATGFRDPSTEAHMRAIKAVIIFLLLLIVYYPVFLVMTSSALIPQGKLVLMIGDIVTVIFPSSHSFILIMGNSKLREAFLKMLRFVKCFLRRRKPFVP", "assay": "Agonist activity at recombinant human N-terminal rat ST3 receptor-fused TAS2R9 expressed in HEK293T cells co-expressing Galpha16gust44 assessed as increase in intracellular calcium level at 100 uM by FLIPR assay"}, "[6]": {"molecular_target": "T4, Taste receptor type 2 member 20 (Homo sapiens) (UniProt P59543)", "T4 sequence (whole entry)": "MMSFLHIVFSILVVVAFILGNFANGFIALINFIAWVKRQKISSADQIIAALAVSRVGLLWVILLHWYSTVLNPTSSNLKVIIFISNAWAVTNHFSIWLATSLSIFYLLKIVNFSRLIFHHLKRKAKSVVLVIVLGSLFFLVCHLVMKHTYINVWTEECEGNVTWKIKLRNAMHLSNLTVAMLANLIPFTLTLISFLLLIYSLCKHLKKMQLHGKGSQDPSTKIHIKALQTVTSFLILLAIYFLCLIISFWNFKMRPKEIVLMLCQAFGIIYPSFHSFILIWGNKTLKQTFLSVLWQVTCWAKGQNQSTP", "assay": "Agonist activity at recombinant human N-terminal rat ST3 receptor-fused TAS2R49 expressed in HEK293T cells co-expressing Galpha16gust44 assessed as increase in intracellular calcium level at 100 uM by FLIPR assay"}, "[7]": {"molecular_target": "T5, Taste receptor type 2 member 10 (Homo sapiens) (UniProt Q9NYW0)", "T5 sequence (whole entry)": "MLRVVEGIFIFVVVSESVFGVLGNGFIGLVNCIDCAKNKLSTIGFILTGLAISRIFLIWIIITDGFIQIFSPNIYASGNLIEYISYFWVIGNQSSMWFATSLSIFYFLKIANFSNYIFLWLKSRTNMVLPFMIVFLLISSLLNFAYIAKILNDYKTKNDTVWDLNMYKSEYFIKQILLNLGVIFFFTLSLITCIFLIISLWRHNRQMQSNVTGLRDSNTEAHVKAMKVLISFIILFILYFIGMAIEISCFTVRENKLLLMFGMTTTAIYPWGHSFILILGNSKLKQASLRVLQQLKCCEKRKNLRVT", "assay": "Competitive-antagonist activity at recombinant human N-terminal rat ST3 receptor-fused TAS2R10 expressed in HEK293T cells co-expressing Galpha16gust44 assessed as inhibition of strychnine-induced increase in intracellular calcium level by measuring maximum signal amplitude at 10 uM by FLIPR assay (reference value: 0.42 +/- 0.09 a.u.)"}, "[8]": {"molecular_target": "T6, Taste receptor type 2 member 3 (Homo sapiens) (UniProt Q9NYW6)", "T6 sequence (whole entry)": "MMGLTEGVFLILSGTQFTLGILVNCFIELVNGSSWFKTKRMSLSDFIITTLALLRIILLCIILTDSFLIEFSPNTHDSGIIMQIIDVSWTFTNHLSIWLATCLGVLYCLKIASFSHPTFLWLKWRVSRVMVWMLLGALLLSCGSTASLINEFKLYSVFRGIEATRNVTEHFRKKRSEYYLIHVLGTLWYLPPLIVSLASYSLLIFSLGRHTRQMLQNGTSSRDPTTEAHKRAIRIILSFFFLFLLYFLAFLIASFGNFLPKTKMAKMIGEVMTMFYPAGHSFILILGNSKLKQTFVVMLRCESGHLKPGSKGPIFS", "assay": "Agonist activity at recombinant human N-terminal rat ST3 receptor-fused TAS2R3 expressed in HEK293T cells co-expressing Galpha16gust44 assessed as increase in intracellular calcium level at 100 uM by FLIPR assay"}, "[9]": {"molecular_target": "Taste receptor type 2 member 19 (Homo sapiens) (UniProt P59542)", "sequence (P59542 whole entry, the tested form may be a part)": "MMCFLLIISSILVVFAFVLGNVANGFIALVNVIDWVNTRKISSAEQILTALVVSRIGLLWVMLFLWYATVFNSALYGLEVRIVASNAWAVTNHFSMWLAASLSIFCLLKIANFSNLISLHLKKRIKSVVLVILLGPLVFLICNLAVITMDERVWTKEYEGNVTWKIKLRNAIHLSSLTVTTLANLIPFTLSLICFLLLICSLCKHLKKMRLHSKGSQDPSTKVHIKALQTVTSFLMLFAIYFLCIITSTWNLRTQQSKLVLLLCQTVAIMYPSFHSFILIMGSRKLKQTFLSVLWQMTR", "assay": "Agonist activity at recombinant human N-terminal rat ST3 receptor-fused TAS2R48 expressed in HEK293T cells co-expressing Galpha16gust44 assessed as increase in intracellular calcium level at 100 uM by FLIPR assay"}}, "note": "Calls of active or inactive are those of the source. The calls are words filed in the database; no cut-off is given here."}
{"smiles": "C/C1=C\\C[C@H](O)[C@@H](C)C[C@H]2OC(=O)[C@@H](C)[C@@H]2CC1", "values": [{"measurement": "inhibition", "setting": "[1]", "value": "inactive"}]}
{"smiles": "C/C1=C\\C[C@H](O)/C(C)=C/[C@H]2OC(=O)[C@@H](C)[C@@H]2CC1", "values": [{"measurement": "Activity", "setting": "[2]", "value": "inactive"}, {"measurement": "Activity", "setting": "[3]", "value": "inactive"}, {"measurement": "Activity", "setting": "[4]", "value": "inactive"}, {"measurement": "Activity", "setting": "[5]", "value": "inactive"}, {"measurement": "Activity", "setting": "[6]", "value": "inactive"}, {"measurement": "Activity", "setting": "[7]", "value": 0.4, "unit": "a.u."}, {"measurement": "Activity", "setting": "[8]", "value": "inactive"}, {"measurement": "Activity", "setting": "[9]", "value": "inactive"}]}
